In PMC5041959, “A high-content EMT screen identifies multiple receptor tyrosine kinase inhibitors with activity on TGFβ receptor” (Oncotarget, 2016):
Like-named read-outs stand apart in the source and are kept apart here.

What was measured:
NMuMG cells = assay: High-content microscopy EMT screen in TGFβ-treated NMuMG cells (FA, SF, FN, cell count); type: cell-based, murine; settings: for Emax (maximal effect on cell count): compared to reference 10 μM SB-431542 = 100%; for Emax: read-out: Emax (maximal effect on cell count)
ROCK1 = ROCK1 (Homo sapiens, UniProt Q13464); assay: Biochemical kinase profiling (33PanQinase radiometric assay)
Sequence of ROCK1 (Q13464 whole entry): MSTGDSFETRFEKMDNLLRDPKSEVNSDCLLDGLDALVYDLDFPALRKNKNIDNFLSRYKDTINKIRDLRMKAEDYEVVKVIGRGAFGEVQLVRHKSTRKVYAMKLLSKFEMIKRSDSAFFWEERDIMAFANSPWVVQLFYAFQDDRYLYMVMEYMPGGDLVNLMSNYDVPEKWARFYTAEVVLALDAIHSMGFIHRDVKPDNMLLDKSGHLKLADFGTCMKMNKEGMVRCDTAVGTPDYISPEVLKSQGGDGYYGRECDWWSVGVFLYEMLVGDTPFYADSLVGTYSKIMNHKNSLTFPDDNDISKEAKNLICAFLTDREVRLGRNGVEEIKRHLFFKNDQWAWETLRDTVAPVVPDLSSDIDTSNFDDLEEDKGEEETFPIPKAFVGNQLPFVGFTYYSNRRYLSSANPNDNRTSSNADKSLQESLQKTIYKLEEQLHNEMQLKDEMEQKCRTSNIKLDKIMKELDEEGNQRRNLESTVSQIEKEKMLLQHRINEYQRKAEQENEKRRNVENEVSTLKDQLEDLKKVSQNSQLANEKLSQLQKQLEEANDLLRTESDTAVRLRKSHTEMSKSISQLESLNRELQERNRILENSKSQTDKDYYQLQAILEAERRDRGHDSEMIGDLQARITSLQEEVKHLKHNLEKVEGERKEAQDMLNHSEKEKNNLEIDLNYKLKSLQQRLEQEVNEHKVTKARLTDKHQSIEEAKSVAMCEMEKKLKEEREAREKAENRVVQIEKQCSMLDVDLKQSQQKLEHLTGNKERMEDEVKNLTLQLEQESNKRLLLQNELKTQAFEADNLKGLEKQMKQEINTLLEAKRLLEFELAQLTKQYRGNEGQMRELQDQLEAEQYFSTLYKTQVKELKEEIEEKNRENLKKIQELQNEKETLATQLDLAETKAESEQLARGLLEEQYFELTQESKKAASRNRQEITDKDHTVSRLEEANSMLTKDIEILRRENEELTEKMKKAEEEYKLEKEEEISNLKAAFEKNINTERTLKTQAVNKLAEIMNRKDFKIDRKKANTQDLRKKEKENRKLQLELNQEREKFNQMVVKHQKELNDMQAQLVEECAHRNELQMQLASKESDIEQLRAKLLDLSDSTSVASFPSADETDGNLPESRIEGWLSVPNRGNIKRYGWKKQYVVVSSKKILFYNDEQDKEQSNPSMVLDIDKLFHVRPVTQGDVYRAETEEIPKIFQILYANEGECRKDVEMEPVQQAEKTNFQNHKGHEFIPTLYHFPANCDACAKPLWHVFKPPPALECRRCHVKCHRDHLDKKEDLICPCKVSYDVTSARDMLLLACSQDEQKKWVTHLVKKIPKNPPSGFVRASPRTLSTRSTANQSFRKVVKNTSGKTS

ROCK2 = ROCK2 (Homo sapiens, UniProt O75116); assay: as above
Sequence of ROCK2 (O75116 whole entry): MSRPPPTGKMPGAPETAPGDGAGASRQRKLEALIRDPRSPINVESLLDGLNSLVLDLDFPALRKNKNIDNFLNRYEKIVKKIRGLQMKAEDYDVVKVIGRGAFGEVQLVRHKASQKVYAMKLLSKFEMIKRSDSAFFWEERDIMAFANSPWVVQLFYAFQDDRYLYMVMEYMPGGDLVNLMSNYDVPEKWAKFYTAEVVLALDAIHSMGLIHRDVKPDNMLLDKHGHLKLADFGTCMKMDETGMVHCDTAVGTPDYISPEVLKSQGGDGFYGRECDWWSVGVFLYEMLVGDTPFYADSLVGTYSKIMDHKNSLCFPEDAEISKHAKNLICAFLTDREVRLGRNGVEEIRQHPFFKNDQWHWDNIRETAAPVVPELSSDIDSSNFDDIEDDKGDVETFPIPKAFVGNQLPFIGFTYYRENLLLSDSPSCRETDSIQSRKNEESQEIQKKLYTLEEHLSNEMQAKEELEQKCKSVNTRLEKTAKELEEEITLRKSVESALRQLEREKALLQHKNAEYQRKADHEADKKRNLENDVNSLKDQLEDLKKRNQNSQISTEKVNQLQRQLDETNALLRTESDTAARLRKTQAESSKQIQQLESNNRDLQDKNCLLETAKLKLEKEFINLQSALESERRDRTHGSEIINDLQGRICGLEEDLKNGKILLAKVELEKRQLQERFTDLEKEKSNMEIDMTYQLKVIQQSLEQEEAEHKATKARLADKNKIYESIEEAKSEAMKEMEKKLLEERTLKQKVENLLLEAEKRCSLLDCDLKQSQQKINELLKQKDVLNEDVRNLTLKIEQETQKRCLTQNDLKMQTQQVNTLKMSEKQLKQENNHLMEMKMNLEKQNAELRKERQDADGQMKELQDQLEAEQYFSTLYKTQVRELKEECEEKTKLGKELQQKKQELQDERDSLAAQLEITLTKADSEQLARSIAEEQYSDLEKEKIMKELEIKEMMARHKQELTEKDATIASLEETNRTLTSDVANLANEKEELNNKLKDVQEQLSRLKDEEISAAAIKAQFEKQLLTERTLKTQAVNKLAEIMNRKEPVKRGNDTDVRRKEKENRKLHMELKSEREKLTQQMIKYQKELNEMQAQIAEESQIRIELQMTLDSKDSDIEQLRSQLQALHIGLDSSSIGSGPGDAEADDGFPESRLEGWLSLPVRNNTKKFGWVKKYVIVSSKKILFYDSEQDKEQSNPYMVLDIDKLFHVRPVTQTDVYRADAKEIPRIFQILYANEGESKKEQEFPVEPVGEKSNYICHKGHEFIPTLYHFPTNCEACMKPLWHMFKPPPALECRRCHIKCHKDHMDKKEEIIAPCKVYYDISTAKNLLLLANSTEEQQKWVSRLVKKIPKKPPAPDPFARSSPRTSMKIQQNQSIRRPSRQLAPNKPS

PDGFRB = PDGFRB (Homo sapiens, UniProt P09619); assay: as above
SRC = SRC (Homo sapiens, UniProt P12931); assay: as above
TGFBR1 = target: T1, TGFBR1 (Homo sapiens, UniProt P36897); assay: as above
T1 sequence (P36897 34-503): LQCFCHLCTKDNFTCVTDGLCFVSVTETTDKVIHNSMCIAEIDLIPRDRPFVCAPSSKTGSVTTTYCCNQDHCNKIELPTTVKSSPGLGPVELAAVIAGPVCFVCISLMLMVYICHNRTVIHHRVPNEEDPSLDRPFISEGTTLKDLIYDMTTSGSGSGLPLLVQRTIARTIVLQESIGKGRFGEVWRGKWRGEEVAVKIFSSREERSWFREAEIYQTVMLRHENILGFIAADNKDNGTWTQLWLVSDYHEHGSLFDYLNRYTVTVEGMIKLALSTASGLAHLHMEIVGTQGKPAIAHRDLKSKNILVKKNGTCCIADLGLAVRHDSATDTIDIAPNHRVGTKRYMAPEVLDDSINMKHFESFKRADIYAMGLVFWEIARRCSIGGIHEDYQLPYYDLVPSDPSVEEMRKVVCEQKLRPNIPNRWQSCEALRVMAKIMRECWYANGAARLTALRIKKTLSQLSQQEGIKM

TGFBR2 = TGFBR2 (Homo sapiens, UniProt P37173); assay: as above
Sequence of TGFBR2 (P37173 23-567): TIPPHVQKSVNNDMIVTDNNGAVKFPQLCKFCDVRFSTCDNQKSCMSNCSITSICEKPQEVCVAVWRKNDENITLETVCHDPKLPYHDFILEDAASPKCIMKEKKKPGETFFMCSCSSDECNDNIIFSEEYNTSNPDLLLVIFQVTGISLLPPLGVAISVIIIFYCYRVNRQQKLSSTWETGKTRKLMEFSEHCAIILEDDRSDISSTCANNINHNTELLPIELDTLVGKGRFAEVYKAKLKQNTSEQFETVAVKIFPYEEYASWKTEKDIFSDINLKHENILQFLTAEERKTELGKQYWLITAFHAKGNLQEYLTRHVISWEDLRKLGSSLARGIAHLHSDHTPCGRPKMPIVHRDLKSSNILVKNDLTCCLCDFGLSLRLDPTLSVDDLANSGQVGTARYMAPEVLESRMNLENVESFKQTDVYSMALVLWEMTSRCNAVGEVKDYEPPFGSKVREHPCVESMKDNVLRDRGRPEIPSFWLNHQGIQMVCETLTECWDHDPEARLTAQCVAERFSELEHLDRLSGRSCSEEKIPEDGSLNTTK

Py2T cells = assay: High-content microscopy EMT assay in TGFβ-treated Py2T breast cancer cells; type: cell-based, murine; settings: for Emax (maximal effect on cell count): compared to reference 10 μM SB-431542 = 100%
ROCK = ROCK cellular assay (MLC Thr18/Ser19 phosphorylation ELISA in A7r5 cells); type: cell-based, rat; settings: 90 min compound
FGFR2 = FGFR2 (Homo sapiens, UniProt P21802); assay: Biochemical kinase profiling (33PanQinase radiometric assay)
Sequence of FGFR2 (P21802 22-821): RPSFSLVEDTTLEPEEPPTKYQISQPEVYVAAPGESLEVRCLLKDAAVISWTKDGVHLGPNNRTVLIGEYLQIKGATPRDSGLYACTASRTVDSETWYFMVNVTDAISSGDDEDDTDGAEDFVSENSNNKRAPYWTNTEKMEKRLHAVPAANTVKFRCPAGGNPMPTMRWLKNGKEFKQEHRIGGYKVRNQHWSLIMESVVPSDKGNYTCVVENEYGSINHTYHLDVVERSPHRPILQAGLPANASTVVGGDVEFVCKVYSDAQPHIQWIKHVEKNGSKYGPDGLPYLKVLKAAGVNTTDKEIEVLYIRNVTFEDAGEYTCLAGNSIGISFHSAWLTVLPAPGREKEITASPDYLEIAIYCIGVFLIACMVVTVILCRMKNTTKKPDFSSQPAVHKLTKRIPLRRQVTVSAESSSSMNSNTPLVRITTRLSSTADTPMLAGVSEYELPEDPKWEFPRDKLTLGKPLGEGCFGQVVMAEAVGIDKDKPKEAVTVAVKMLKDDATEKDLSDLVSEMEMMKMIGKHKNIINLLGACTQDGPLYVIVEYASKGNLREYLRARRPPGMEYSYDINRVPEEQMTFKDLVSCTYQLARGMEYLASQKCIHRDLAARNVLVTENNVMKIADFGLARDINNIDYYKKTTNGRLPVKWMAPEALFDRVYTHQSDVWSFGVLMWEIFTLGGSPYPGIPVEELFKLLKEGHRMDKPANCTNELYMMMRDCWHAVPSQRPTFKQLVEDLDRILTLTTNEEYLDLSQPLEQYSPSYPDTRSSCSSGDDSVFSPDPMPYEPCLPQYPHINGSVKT

FGFR3 = FGFR3 (Homo sapiens, UniProt P22607); assay: as above
Sequence of FGFR3 (P22607 23-806): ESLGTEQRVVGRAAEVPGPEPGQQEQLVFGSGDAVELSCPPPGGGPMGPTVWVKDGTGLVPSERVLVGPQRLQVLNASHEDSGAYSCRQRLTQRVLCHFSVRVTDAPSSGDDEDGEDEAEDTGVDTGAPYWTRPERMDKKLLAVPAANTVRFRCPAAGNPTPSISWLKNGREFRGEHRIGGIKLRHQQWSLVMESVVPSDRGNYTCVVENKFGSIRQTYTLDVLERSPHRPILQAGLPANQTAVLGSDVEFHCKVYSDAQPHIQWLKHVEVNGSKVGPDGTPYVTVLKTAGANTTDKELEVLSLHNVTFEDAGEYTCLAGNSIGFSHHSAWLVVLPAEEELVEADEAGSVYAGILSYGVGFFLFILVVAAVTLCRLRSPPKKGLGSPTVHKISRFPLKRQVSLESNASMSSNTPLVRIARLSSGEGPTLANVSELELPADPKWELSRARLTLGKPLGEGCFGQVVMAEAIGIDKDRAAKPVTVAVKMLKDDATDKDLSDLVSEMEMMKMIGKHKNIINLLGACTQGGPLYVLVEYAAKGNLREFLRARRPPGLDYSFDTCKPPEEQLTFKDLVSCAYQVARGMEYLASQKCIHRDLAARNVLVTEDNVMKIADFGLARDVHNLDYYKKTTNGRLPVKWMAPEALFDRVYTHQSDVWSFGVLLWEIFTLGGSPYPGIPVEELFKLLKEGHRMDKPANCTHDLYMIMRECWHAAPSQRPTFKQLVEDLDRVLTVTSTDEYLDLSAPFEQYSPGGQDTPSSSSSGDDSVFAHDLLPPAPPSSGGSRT

FGFR4 = FGFR4 (Homo sapiens, UniProt P22455); assay: as above
PDGFRA = PDGFRA (Homo sapiens, UniProt P16234); assay: as above; settings: read-out: PDGFRA IC50; ATP at apparent Km
[1] = Mus musculus, NMuMG, cell count decreased by 50% compared to DMSO control, read-out: Tox IC50
[2] = NMuMG, TGFβ1 2 ng/ml plus compound, 4 days, parameter decreased by 50%
[3] = Py2T, cell count decreased by 50% compared to DMSO control, read-out: Tox IC50
[4] = Py2T, compared to 10 μM SB-431542, read-out: CCI IC50 (cell count increase)
[5] = read-out: ROCK1 IC50, ATP at apparent Km
[6] = read-out: ROCK2 IC50, ATP at apparent Km
[7] = Mus musculus, 96 h, NMuMG, TGFβ1 2 ng/ml plus compound, 4 days, parameter decreased by 50%, read-out: FA IC50 (focal adhesion formation)
[8] = Mus musculus, 96 h, NMuMG, TGFβ1 2 ng/ml plus compound, 4 days, parameter decreased by 50%, read-out: FN IC50 (fibronectin patch formation)
[9] = Mus musculus, 96 h, NMuMG, TGFβ1 2 ng/ml plus compound, 4 days, parameter decreased by 50%, read-out: SF IC50 (stress fibers)
[10] = Mus musculus, NMuMG, mean of IC50 values obtained for FA, SF, FN, read-out: EMT (FA/SF/FN) combined IC50
[11] = Mus musculus, read-out: CCI IC50 (cell count increase)
[12] = Mus musculus, Py2T, cell count decreased by 50% compared to DMSO control, read-out: Tox IC50
[13] = Py2T, TGFβ plus compound, 4 days

Row | IC50 (ROCK1) [nM] | IC50 (ROCK2) [nM] | IC50 (TGFBR1) [nM] | IC50 (Py2T cells; [4]) [nM] | IC50 (ROCK1; [5]) [nM] | IC50 (ROCK2; [6]) [nM] | IC50 (NMuMG cells; [7]) [nM] | IC50 (NMuMG cells; [8]) [nM] | IC50 (NMuMG cells; [9]) [nM] | IC50 (NMuMG cells; [10]) [nM] | IC50 (NMuMG cells; [11]) [nM] | FA IC50 (focal adhesions) (Py2T cells; [13]) | FN IC50 (fibronectin patches) (Py2T cells; [13]) | SF IC50 (stress fibers) (Py2T cells; [13]) | SMILES | IC50 (NMuMG cells; [1]) [nM] | Emax (maximal effect on cell count) (NMuMG cells; NMuMG) | IC50 (Py2T cells; [3]) [nM] | Emax (maximal effect on cell count) (Py2T cells; Py2T) | Emax (NMuMG cells; Mus musculus) [%] | IC50 (Py2T cells; [12]) [nM] | other results
1 | > 10000 | > 10000 | > 10000 |  |  |  |  |  |  |  |  |  |  |  | CCN1CCN(c2ccc(Nc3cc(N(C)C(=O)Nc4c(Cl)c(OC)cc(OC)c4Cl)ncn3)cc2)CC1 [BGJ398] | 1500 | n.m. |  |  |  |  | FA IC50 (focal adhesion formation) (NMuMG cells; [2]): n.m.; FN IC50 (fibronectin patch formation) (NMuMG cells; [2]): n.m.; SF IC50 (stress fibers) (NMuMG cells; [2]): n.m.; IC50 (PDGFRB): 7430 nM; IC50 (SRC): 7940 nM; IC50 (TGFBR2): > 10000 nM
2 |  |  |  | 232 | > 10000 | > 10000 |  |  |  |  |  | n.m. | n.m. | n.m. | CCN(CC)CCCCNc1ncc2cc(-c3c(Cl)cccc3Cl)c(NC(=O)NC(C)(C)C)nc2n1 [PD-161570] |  | 50.8% | 479 | 43% |  |  | IC50 (NMuMG cells; NMuMG, TGFβ1 2 ng/ml plus compound, 4 days, parameter decreased by 50%, read-out: FA IC50 (focal adhesion formation)): 337 nM; IC50 (NMuMG cells; NMuMG, TGFβ1 2 ng/ml plus compound, 4 days, parameter decreased by 50%, read-out: FN IC50 (fibronectin patch formation)): 1040 nM; IC50 (NMuMG cells; NMuMG, TGFβ1 2 ng/ml plus compound, 4 days, parameter decreased by 50%, read-out: SF IC50 (stress fibers)): 702 nM; IC50 (NMuMG cells; NMuMG, cell count decreased by 50% compared to DMSO control, read-out: Tox IC50): 4970 nM; IC50 (NMuMG cells; NMuMG, cell count increased by 50% compared to 100% with 10 μM SB-431542, read-out: CCI IC50 (cell count increase)): 525 nM; IC50 (NMuMG cells; NMuMG, mean of IC50 values obtained for FA, SF, FN, read-out: EMT (FA/SF/FN) combined IC50): 694 nM; IC50 (FGFR2; read-out: FGFR2 IC50, ATP at apparent Km): 6.5 nM; IC50 (FGFR3; read-out: FGFR3 IC50, ATP at apparent Km): 27.2 nM; IC50 (FGFR4; read-out: FGFR4 IC50, ATP at apparent Km): 667 nM; IC50 (PDGFRA): 2370 nM; IC50 (PDGFRB; read-out: PDGFRB IC50, ATP at apparent Km): 95.8 nM; IC50 (SRC; read-out: SRC IC50, ATP at apparent Km): 5.2 nM; IC50 (TGFBR1; read-out: TGFBR1 IC50, ATP at apparent Km): 44.9 nM; IC50 (TGFBR2; read-out: TGFBR2 IC50, ATP at apparent Km): 1280 nM
3 |  |  | 6.8 |  |  |  | 27 | 39 | 79 | 48.3 | 17 | n.m. | n.m. | n.m. | CCN(CC)CCOc1ccc(Nc2ncc3cc(-c4c(Cl)cccc4Cl)c(=O)n(C)c3n2)cc1 [PD-166285] | 229 |  |  | n.m. | 24 | 138 | IC50 (FGFR2): 1.8 nM; IC50 (FGFR3): 9 nM; IC50 (FGFR4): 55.5 nM; IC50 (TGFBR2; TGFBR2 IC50, ATP at apparent Km): 137 nM

Continued, compound first:

Row | SMILES | IC50 (ROCK1) [nM] | IC50 (ROCK2) [nM] | IC50 (TGFBR1) [nM] | IC50 (Py2T cells; [4]) [nM] | IC50 (ROCK1; [5]) [nM] | IC50 (ROCK2; [6]) [nM] | IC50 (NMuMG cells; [7]) [nM] | IC50 (NMuMG cells; [8]) [nM] | IC50 (NMuMG cells; [9]) [nM] | IC50 (NMuMG cells; [10]) [nM] | IC50 (NMuMG cells; [11]) [nM] | FA IC50 (focal adhesions) (Py2T cells; [13]) | FN IC50 (fibronectin patches) (Py2T cells; [13]) | SF IC50 (stress fibers) (Py2T cells; [13]) | IC50 (NMuMG cells; [1]) [nM] | Emax (maximal effect on cell count) (NMuMG cells; NMuMG) | IC50 (Py2T cells; [3]) [nM] | Emax (maximal effect on cell count) (Py2T cells; Py2T) | Emax (NMuMG cells; Mus musculus) [%] | IC50 (Py2T cells; [12]) [nM] | other results
4 | NC(=O)c1ccc(NC(=O)NCc2cccc(C(=O)Nc3ccc4c(c3)CNCC4)c2)cc1 [CAY10622] |  |  |  | > 25000 | 54 | 17.8 |  |  |  |  |  |  |  |  |  |  | > 25000 | 18.4% |  |  | IC50 (Py2T cells; Py2T, TGFβ plus compound, 4 days, read-out: FA IC50 (focal adhesions)): > 25000 nM; IC50 (Py2T cells; Py2T, TGFβ plus compound, 4 days, read-out: FN IC50 (fibronectin patches)): > 25000 nM; IC50 (Py2T cells; Py2T, TGFβ plus compound, 4 days, read-out: SF IC50 (stress fibers)): > 25000 nM; IC50 (ROCK): > 10000 nM
5 | CC1=C(C(=O)Nc2cc3cn[nH]c3cc2F)C(c2ccc(C(F)(F)F)cc2)CC(=O)N1 (stereo not shown) [GSK429286A] | 46.7 | 55.3 |  |  |  |  | 127 | 264 | 82 | 158 | 142 |  |  |  | > 25000 |  |  |  | 33.2 | 20300 | IC50 (Py2T cells; Mus musculus, 96 h, Py2T, TGFβ plus compound, 4 days, read-out: FA IC50 (focal adhesions)): 245 nM; IC50 (Py2T cells; Mus musculus, 96 h, Py2T, TGFβ plus compound, 4 days, read-out: FN IC50 (fibronectin patches)): 192 nM; IC50 (Py2T cells; Mus musculus, 96 h, Py2T, TGFβ plus compound, 4 days, read-out: SF IC50 (stress fibers)): 105 nM; IC50 (Py2T cells; [11]): 51.8 nM; Emax (Py2T cells; Mus musculus, read-out: Emax (maximal effect on cell count)): 47.5%; IC50 (ROCK; Rattus norvegicus, 1.5 h): 29 nM
